{"source": "paper PMC2982795", "about": "(Nature structural & molecular biology, 2009)", "key": {"hMSH2/MSH3 [1]": {"target": "T1, hMSH2/MSH3 (Homo sapiens, UniProt P20585+P43246)", "T1 sequence (P43246 2-934)": "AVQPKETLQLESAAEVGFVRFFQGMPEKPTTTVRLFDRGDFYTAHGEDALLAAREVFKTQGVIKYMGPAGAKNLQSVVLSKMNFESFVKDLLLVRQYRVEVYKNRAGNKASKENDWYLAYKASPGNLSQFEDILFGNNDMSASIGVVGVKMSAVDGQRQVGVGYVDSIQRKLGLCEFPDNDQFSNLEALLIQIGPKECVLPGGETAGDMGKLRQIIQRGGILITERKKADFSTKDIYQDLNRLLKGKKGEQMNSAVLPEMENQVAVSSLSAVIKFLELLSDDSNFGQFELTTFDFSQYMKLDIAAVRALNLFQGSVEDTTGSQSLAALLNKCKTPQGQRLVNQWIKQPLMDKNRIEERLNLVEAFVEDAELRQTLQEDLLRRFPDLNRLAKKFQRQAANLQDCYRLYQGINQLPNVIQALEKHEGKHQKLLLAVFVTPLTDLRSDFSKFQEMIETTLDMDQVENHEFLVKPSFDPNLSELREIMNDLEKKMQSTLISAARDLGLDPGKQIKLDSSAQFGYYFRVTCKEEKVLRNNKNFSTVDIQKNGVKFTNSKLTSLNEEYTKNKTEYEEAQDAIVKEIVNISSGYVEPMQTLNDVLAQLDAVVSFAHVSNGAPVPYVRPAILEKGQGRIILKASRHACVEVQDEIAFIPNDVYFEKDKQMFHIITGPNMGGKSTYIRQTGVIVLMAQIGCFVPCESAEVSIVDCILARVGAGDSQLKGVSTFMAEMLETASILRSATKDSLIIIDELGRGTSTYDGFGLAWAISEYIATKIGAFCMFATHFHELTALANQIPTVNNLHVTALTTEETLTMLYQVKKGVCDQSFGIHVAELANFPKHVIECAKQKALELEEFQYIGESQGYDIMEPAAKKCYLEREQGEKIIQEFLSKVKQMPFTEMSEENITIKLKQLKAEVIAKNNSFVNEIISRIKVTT", "T1 sequence (P20585 whole entry)": "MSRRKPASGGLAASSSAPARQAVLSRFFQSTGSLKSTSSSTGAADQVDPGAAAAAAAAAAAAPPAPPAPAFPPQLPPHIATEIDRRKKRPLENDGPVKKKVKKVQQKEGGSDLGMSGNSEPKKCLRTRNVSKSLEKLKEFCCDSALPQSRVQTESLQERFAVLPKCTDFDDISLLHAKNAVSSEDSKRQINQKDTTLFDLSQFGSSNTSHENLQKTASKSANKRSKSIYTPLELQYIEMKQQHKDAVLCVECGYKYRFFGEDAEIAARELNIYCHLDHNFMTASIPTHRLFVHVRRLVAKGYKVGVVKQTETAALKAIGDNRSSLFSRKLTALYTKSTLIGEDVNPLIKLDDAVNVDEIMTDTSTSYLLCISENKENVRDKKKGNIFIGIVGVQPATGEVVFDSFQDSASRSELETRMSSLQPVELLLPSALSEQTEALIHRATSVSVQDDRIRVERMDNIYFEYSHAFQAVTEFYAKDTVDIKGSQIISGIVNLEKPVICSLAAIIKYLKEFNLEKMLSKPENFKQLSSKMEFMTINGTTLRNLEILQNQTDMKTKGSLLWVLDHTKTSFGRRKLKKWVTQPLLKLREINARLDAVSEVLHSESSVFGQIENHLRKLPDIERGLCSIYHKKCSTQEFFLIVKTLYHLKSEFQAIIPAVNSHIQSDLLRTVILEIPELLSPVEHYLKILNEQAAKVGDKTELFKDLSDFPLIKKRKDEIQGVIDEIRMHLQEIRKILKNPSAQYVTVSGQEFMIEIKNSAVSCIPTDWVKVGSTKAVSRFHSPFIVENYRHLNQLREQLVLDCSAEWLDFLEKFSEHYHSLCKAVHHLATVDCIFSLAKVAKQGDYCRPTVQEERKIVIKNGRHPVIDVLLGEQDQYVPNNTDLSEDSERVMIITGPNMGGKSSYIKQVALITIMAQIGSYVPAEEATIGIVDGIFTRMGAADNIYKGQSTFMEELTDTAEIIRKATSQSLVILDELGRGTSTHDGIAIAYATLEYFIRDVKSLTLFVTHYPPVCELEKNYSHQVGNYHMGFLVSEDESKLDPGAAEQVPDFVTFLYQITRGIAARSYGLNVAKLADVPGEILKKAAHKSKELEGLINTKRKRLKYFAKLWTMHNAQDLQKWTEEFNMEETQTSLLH", "assay": "UV cross-linking of [alpha-32P]-ADP, SDS-PAGE", "assay_type": "binding", "conditions": "5 mM Mg2+; pH 8.1; no DNA; either hMSH2 or hMSH3 subunit"}, "hMSH2/MSH3 [2]": {"target": "T1, hMSH2/MSH3", "assay": "fluorescence anisotropy competition, displacement of pre-bound BD-ADP", "assay_type": "binding"}, "hMSH2/MSH6 [3]": {"target": "T2, hMSH2/MSH6 (Homo sapiens, UniProt P43246+P52701)", "T2 sequence (P43246 2-934)": "as the sequence (P43246 2-934) above", "T2 sequence (P52701 whole entry)": "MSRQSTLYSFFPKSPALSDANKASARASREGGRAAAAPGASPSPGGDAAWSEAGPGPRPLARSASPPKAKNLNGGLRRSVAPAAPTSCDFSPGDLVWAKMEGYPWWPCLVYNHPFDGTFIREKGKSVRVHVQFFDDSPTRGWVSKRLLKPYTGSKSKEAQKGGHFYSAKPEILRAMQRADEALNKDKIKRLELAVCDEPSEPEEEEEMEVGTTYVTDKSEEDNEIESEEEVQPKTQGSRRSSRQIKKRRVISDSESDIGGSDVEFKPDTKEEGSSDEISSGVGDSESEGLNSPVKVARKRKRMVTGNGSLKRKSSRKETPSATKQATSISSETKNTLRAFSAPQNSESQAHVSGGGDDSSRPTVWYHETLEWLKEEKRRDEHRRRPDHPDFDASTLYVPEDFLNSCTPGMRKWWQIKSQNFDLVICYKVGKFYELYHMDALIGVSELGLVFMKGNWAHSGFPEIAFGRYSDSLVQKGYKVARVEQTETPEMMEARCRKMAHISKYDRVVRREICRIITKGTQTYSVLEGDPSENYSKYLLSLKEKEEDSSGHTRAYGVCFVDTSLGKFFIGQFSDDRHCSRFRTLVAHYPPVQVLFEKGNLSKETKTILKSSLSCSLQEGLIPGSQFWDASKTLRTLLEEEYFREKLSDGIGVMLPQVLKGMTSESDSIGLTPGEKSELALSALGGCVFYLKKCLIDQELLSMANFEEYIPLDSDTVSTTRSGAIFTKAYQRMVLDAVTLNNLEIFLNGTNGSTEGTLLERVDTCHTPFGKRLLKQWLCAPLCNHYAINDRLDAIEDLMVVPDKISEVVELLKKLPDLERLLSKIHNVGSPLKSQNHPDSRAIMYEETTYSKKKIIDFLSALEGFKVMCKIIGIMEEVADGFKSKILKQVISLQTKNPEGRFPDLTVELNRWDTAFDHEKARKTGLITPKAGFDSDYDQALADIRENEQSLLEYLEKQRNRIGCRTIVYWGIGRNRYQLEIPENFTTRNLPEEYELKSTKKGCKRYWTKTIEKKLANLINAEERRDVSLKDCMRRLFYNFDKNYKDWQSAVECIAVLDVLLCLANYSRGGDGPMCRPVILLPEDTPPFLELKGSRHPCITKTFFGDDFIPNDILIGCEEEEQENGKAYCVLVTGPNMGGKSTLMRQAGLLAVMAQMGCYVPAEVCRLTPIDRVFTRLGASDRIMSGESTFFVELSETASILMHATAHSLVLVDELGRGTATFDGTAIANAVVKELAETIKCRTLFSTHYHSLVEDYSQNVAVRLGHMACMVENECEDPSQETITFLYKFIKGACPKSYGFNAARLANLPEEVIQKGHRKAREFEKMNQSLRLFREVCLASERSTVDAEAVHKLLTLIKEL", "assay": "UV cross-linking of [alpha-32P]-ADP, SDS-PAGE", "assay_type": "binding"}, "hMSH2/MSH3 [4]": {"target": "T1, hMSH2/MSH3", "assay": "UV cross-linking of [alpha-32P]-AMP-PNP, SDS-PAGE", "assay_type": "binding", "conditions": "+Mg2+; no DNA"}, "hMSH2/MSH6 [5]": {"target": "T2, hMSH2/MSH6", "assay": "fluorescence anisotropy, equilibrium binding", "conditions": "no DNA, labelled compound"}}, "note": "Like-named read-outs stand apart in the source and are kept apart here."}
{"compound": "Nc1ncnc2c1ncn2[C@@H]1O[C@H](COP(=O)(O)OP(=O)(O)O)[C@@H](O)[C@H]1O", "note": "[ADP]", "values": [{"measurement": "KD", "setting": "hMSH2/MSH3 [1]", "value": "both subunits bound either nucleotide with high affinity, as quantified by the gel scans"}, {"measurement": "Ki", "setting": "hMSH2/MSH3 [2]; +Mg2+, no DNA, competitive, hMSH3 subunit", "value": "compare KD and Ki for ADP in Supplemental Fig. 1a,c"}, {"measurement": "Kd", "setting": "hMSH2/MSH6 [3]", "value": 650, "unit": "nM"}]}
{"compound": "Nc1ncnc2c1ncn2[C@@H]1O[C@H](COP(=O)(O)OP(=O)(O)NP(=O)(O)O)[C@@H](O)[C@H]1O", "note": "[AMP-PNP]", "values": [{"measurement": "KD", "setting": "hMSH2/MSH3 [4]", "value": "Results for x-linking with AMP-PNP displayed the same trend"}, {"measurement": "Ki", "setting": "hMSH2/MSH3 [2]", "value": 11300, "unit": "nM"}]}
{"compound": "BD-AMP-PNP", "values": [{"measurement": "Kd", "setting": "hMSH2/MSH6 [5]; read-out: binding affinity, +Mg2+", "value": 230, "unit": "nM"}]}
{"compound": "BD-ATP", "values": [{"measurement": "Kd", "setting": "hMSH2/MSH6 [5]; no Mg2+ (non-hydrolyzing)", "value": 390, "unit": "nM"}]}
